Key:
human DGKα = human DGKα (Homo sapiens, UniProt P23743); assay: DGKα Biochemical Activity Assay (ADP-Glo); conditions: recombinant DGKα 1 nM, 100 μM ATP, 18:1 DAG/POPS/octylglucoside micelles, 1 hour at 25° C.; geometric mean; read-out: HTBS DGKa 1X ATP KM IC50;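 also: luminescent detection of ADP produced as DGKα phosphorylates DAG to phosphatidic acid, IC50 from four-parameter nonlinear curve fit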
[1] = test system: Jurkat NFκB-luciferase cells; assay: Jurkat NFκB-Luciferase Assay; format: cell-based; conditions: Homo sapiens; Jurkat NFκB-luciferase cells activated with anti-CD3 antibody (OKT3), 2.5 hrs at 37° C.; geometric mean; read-out: DGK NFKb Luciferase EC50
Method: The day after, the excess antibody was washed out five times with 100 ul/well of assay medium (RPMI supplemented with 10% fetal bovine serum) using a Biotek EL406 instrument and leaving 20 ul of residual volume in each well. Jurkat NFκB-luciferase cells (Promega #) were harvested and diluted to 1 million cells/ml in assay medium. […] Thirty microliters of medium containing the Jurkat NFκB-luciferase cells were then dispensed using a Biotek MicroFlo instrument in each well of the compound-containing plate. […] Forty microliters of One-Glo Ex (Promega) was then added to the assay mixture and luciferase activity was read on a Envision plate reader 7 minutes later.

Chain of human DGKα (P23743 whole entry): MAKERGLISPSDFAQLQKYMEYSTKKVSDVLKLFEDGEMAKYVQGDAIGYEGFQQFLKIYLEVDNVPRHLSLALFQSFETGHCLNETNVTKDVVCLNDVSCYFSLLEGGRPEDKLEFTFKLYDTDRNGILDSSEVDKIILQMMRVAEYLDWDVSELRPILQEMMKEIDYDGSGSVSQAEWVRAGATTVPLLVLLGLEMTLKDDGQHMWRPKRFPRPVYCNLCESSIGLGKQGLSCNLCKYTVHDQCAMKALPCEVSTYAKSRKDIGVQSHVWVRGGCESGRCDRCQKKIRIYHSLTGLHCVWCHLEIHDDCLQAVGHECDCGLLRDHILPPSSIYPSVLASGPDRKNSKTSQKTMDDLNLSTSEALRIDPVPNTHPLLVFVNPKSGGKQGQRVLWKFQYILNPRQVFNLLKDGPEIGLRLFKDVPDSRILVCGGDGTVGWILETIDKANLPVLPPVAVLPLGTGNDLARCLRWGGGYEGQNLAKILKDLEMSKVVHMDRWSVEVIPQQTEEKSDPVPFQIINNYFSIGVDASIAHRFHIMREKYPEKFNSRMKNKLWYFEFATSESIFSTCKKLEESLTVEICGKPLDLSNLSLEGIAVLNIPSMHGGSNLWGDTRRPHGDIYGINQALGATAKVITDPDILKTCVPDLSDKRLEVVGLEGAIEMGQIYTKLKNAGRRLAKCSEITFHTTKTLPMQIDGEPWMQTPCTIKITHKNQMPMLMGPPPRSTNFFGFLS

| IC50 (human DGKα) | EC50 [1] | SMILES |
| --- | --- | --- |
| 15.1 nM | 0.897 nM | Cc1nnc2nc(N3CCCCc4c(C#CC5CC5)cncc43)c3c(F)c(F)ccc3n12 [Example 1, 5-(6-(cyclopropylethynyl)-2,3,4,5-tetrahydro-1H-pyrido[3,4-b]azepin-1-yl)-6,7-difluoro-1-methyl-[1,2,4]triazolo[4,3-a]quinazoline] |
| 14.8 nM | 3.13 nM | Cc1nnc2nc(N3CCCCc4c(C#CC(C)(C)C#N)cncc43)c3c(F)c(F)ccc3n12 [Example 2, 4-(1-(6,7-difluoro-1-methyl-[1,2,4]triazolo[4,3-a]quinazolin-5-yl)-2,3,4,5-tetrahydro-1H-pyrido[3,4-b]azepin-6-yl)-2,2-dimethylbut-3-ynenitrile] |
| 23.1 nM | 0.747 nM | Cc1nnc2nc(N3CCCCc4c(C#CC5(C)CC5)cncc43)c3c(F)c(F)ccc3n12 [Example 7, 6,7-difluoro-1-methyl-5-(6-((1-methylcyclopropyl)ethynyl)-2,3,4,5-tetrahydro-1H-pyrido[3,4-b]azepin-1-yl)-[1,2,4]triazolo[4,3-a]quinazoline] |
| 17.7 nM | 1.65 nM | Cc1nnc2nc(N3CCCCc4c(C#CC5(C(F)F)CC5)cncc43)c3c(F)c(F)ccc3n12 [Example 8, 5-(6-((1-(difluoromethyl)cyclopropyl)ethynyl)-2,3,4,5-tetrahydro-1H-pyrido[3,4-b]azepin-1-yl)-6,7-difluoro-1-methyl-[1,2,4]triazolo[4,3-a]quinazoline] |
| 28.5 nM | 1.53 nM | Cc1nnc2nc(N3CCCCc4c(C#CC5(C(F)(F)F)CC5)cncc43)c3c(F)c(F)ccc3n12 [Example 9, 6,7-difluoro-1-methyl-5-(6-((1-(trifluoromethyl)cyclopropyl)ethynyl)-2,3,4,5-tetrahydro-1H-pyrido[3,4-b]azepin-1-yl)-[1,2,4]triazolo[4,3-a]quinazoline] |
| 17.2 nM | 5.87 nM | Cc1nnc2nc(N3CCCc4c(C#CC(C)(C)C#N)cncc43)c3c(F)c(F)ccc3n12 [Example 10, 4-(1-(6,7-difluoro-1-methyl-[1,2,4]triazolo[4,3-a]quinazolin-5-yl)-1,2,3,4-tetrahydro-1,7-naphthyridin-5-yl)-2,2-dimethylbut-3-ynenitrile] |
| 13.9 nM | 5.77 nM | Cc1nnc2nc(N3CCCc4c(C#CC5(C(F)F)CC5)cncc43)c3c(F)c(F)ccc3n12 [Example 11, 5-(5-((1-(difluoromethyl)cyclopropyl)ethynyl)-3,4-dihydro-1,7-naphthyridin-1(2H)-yl)-6,7-difluoro-1-methyl-[1,2,4]triazolo[4,3-a]quinazoline] |
| 37.3 nM | 1.85 nM | Cc1nnc2nc(N3CCCc4c(C#CC5(C(C)(F)F)CC5)cncc43)c3c(F)c(F)ccc3n12 [Example 12, 5-(5-((1-(1,1-difluoroethyl)cyclopropyl)ethynyl)-3,4-dihydro-1,7-naphthyridin-1(2H)-yl)-6,7-difluoro-1-methyl-[1,2,4]triazolo[4,3-a]quinazoline] |
| 22.7 nM | 1.54 nM | CC(F)(F)C1(C#Cc2cncc3c2CCCN3c2nc3nncn3c3ccc(F)c(F)c23)CC1 [Example 16, 5-(5-((1-(1,1-difluoroethyl)cyclopropyl)ethynyl)-3,4-dihydro-1,7-naphthyridin-1(2H)-yl)-6,7-difluoro-[1,2,4]triazolo[4,3-a]quinazoline] |

The remaining lines, values behind:

| SMILES | IC50 (human DGKα) | EC50 [1] |
| --- | --- | --- |
| Cc1nnc2nc(N3CCCCc4c(C#CC5(C(F)(F)F)CC5)cncc43)c3cc(F)ccc3n12 [Example 3, 7-fluoro-1-methyl-5-(6-((1-(trifluoromethyl)cyclopropyl)ethynyl)-2,3,4,5-tetrahydro-1H-pyrido[3,4-b]azepin-1-yl)-[1,2,4]triazolo[4,3-a]quinazoline] | 35.9 nM | 1.86 nM |
| Cc1nnc2nc(N3CCCCc4c(C#CC(C)(C)C#N)cncc43)c3cc(F)ccc3n12 [Example 4, 4-(1-(7-fluoro-1-methyl-[1,2,4]triazolo[4,3-a]quinazolin-5-yl)-2,3,4,5-tetrahydro-1H-pyrido[3,4-b]azepin-6-yl)-2,2-dimethylbut-3-ynenitrile] | 23.9 nM | 6.92 nM |
| Cc1nnc2nc(N3CCCCc4c(C#CC5(C)CC5)cncc43)c3cc(F)ccc3n12 [Example 5, 7-fluoro-1-methyl-5-(6-((1-methylcyclopropyl)ethynyl)-2,3,4,5-tetrahydro-1H-pyrido[3,4-b]azepin-1-yl)-[1,2,4]triazolo[4,3-a]quinazoline] | 14.5 nM | 1.19 nM |
| Cc1nnc2nc(N3CCCCc4c(C#CC5(C)CC5)cncc43)c3c(F)cccc3n12 [Example 6, 6-fluoro-1-methyl-5-(6-((1-methylcyclopropyl)ethynyl)-2,3,4,5-tetrahydro-1H-pyrido[3,4-b]azepin-1-yl)-[1,2,4]triazolo[4,3-a]quinazoline] | 44.1 nM | 0.692 nM |
| Fc1ccc2c(c(N3CCCc4c(C#CC5CCC5)cncc43)nc3nncn32)c1F [Example 13, 5-(5-(cyclobutylethynyl)-3,4-dihydro-1,7-naphthyridin-1(2H)-yl)-6,7-difluoro-[1,2,4]triazolo[4,3-a]quinazoline] | 7.93 nM | 1.01 nM |
| Fc1ccc2c(c(N3CCCc4c(C#CC5CC(F)(F)C5)cncc43)nc3nncn32)c1F [Example 14, 5-(5-((3,3-difluorocyclobutyl)ethynyl)-3,4-dihydro-1,7-naphthyridin-1(2H)-yl)-6,7-difluoro-[1,2,4]triazolo[4,3-a]quinazoline] | 8.19 nM | 1.4 nM |
| Fc1ccc2c(c(N3CCCc4c(C#CC5(C(F)F)CC5)cncc43)nc3nncn32)c1F [Example 15, 5-(5-((1-(difluoromethyl)cyclopropyl)ethynyl)-3,4-dihydro-1,7-naphthyridin-1(2H)-yl)-6,7-difluoro-[1,2,4]triazolo[4,3-a]quinazoline] | 7.16 nM | 1.91 nM |
| Fc1cccc2c1c(N1CCCc3c(C#CC4CC(F)(F)C4)cncc31)nc1nncn12 [Example 17, 5-(5-((3,3-difluorocyclobutyl)ethynyl)-3,4-dihydro-1,7-naphthyridin-1(2H)-yl)-6-fluoro-[1,2,4]triazolo[4,3-a]quinazoline] | 14.7 nM | 1.16 nM |
| Fc1cccc2c1c(N1CCCc3c(C#CC4CCC4)cncc31)nc1nncn12 [Example 18, 5-(5-(cyclobutylethynyl)-3,4-dihydro-1,7-naphthyridin-1(2H)-yl)-6-fluoro-[1,2,4]triazolo[4,3-a]quinazoline] | 14.2 nM | 1.5 nM |
| Fc1cccc2c1c(N1CCCc3c(C#CC4(C(F)F)CC4)cncc31)nc1nncn12 [Example 19, 5-(5-((1-(difluoromethyl)cyclopropyl)ethynyl)-3,4-dihydro-1,7-naphthyridin-1(2H)-yl)-6-fluoro-[1,2,4]triazolo[4,3-a]quinazoline] | 21.3 nM | 1.53 nM |
| Cc1nnc2nc(N(CC(F)F)c3cc(F)cc(C#CC4CCOCC4)c3)c3c(F)cccc3n12 [Example 20, N-(2,2-difluoroethyl)-6-fluoro-N-(3-fluoro-5-((tetrahydro-2H-pyran-4-yl)ethynyl)phenyl)-1-methyl-[1,2,4]triazolo[4,3-a]quinazolin-5-amine] | 30.1 nM | 10.3 nM |
